Entries after “also recorded” stand apart in the source; their conditions may differ.
Experiments:
Format in all cases: cell-based
A427 cells = experiment: 13C(5)-Gln labeling of glutamate and aspartate, LC/MS; details: 1 hr drug pre-treatment, 2 hr 13C(5)-Gln labeling
Description: A427 parent cells or lines stably expressing pLVX empty vector control (Con), wild-type GAC (GAC), or a BPTES-resistant GAC enzyme (GAC-BR) were treated with indicated concentrations of drugs in a 72 hr proliferation assay. […] Calculated p-values from student t-test, * (3×10^−8), **(10^−9), ^#(10^−7), ^##(2×10^−6).
(§1) Several groups have shown that GLS inhibition leads to a decrease in cellular tricarboxylic acid cycle (TCA) intermediates downstream of GLS activity (P. Gao et al. Nature 458, 762 (2009); T. Cheng et al. Proceedings of the National Academy of Sciences 108, 8674 (2011)). Measurement of glutamate (the product of the glutaminase reaction) and aspartate (which derives both carbon and nitrogen from glutamate) are particularly sensitive readouts of glutaminase activity (FIG. 13). ^13C labeled carbon in cells pre-treated with drug was tracked for 1 hr, followed by a 2 hr ^13C(5)-Gln labeling period, via LC/MS.

LXF-289 = experiment: Lung cancer cell line panel screened for sensitivity to BPTES, 72 hr proliferation assay
MDA-MB-231 cells [1] = experiment: 72 hr proliferation assay in lines stably expressing empty vector, GAC or GAC-BR
Description: (§2) MDA-MB-231 cell lines stably expressing empty vector control (Con), wild-type GAC (GAC), or a BPTES-resistant GAC enzyme (GAC-BR) were treated with indicated concentrations of drugs in a 72 hr proliferation assay. […] Calculated p-values from student t-test, * (3×10^−5), **(7×10^−10), ^#(3×10^−5), ^##(5×10^−7).
Levels of overexpression of the GAC WT and GAC-BR mutant were approximately 1.5-2.0 fold above endogenous GLS1 levels (FIG. 12).

MDA-MB-231 cells [2] = experiment: 13C(5)-Gln labeling of glutamate and aspartate, LC/MS; details: 1 hr drug pre-treatment, 2 hr 13C(5)-Gln labeling
Description: as §2, §1

[3] = system: panel of 62 lung cancer cell lines; experiment: Lung cancer cell line panel screened for sensitivity to BPTES, whole panel
Text: (§3) Of these, 44 of the cell lines have been classified as non-small cell lung cancer (NSCLC). […] Four of the top 25 transcriptional/cellular pathways were related to the epithelial-mesenchymal transition (EMT) (ranks 1, 15, 23, 25 of FIG. 2). […] Low E-cadherin/high vimentin are well-defined markers of cells that have a mesenchymal phenotype as characterized for example, in any one of the following references: (Yauch et al., (2005) Cin Cancer Res 11:24; Savagner et al., (2010) Ann Oncol. 21(suppl 7): vii89; Thiery et al., (2002) Nature Reviews Cancer June vol 2:442).

DMS-53 = experiment: Lung cancer cell line panel screened for sensitivity to BPTES, 72 hr proliferation assay; details: DMS-53 cell line
Text: as §3

NCI-H1650 = experiment: as above
Text: as §3

NCI-H1694 = experiment: as above
Text: as §3

NCI-H2126 = experiment: as above
Text: as §3

HCC15 = experiment: as above
Text: as §3

NCI-H1838 = experiment: as above
Text: as §3

NCI-H1581 = experiment: as above
Text: as §3

DMS-153 = experiment: as above; details: DMS-153 cell line
Text: as §3

NCI-H1573 = experiment: as above
Text: as §3

NCI-H2347 = experiment: as above
Text: as §3

NCI-H748 = experiment: as above
Text: as §3

NCI-H2009 = experiment: as above
Text: as §3

NCI-H774 = experiment: as above
Text: as §3

NCI-H1436 = experiment: as above
Text: as §3

NCI-H1437 = experiment: as above
Text: as §3

PC3 = experiment: 72 hr proliferation assay using CellTiter-Glo in 96-well format; details: 72 hr treatment
Text: (§4) FIGS. 8A-8C depict the GLS1 dependence in selected cancer cell lines. FIG. 8A depicts a western blot analysis of GLS1 and GLS2 protein levels in indicated cell lines. KGA and GAC alternative splice variants are indicated.
(§5) Proc of the National Academy of Sciences 109, 1092 (2012); McBryant Supra; DeLaBarre, Supra). […] This loop differs in primary sequence between GLS1 and GLS2, thereby explaining the differential response of the two isoforms.

HCT116 = experiment: as above; details: 72 hr treatment
Text: as §4, §5

CAKI-1 = experiment: as above; details: 72 hr treatment
Text: as §4, §5

HUH7 = experiment: as above; details: 72 hr treatment
Text: as §4, §5

MDA-MB-231 = experiment: as above; details: 72 hr treatment
Text: as §4, §5

A427 = experiment: as above; details: 72 hr treatment
Text: as §4, §5

HepG2 = experiment: as above; details: 72 hr treatment
Text: as §4, §5

SKBR3 = experiment: as above; details: 72 hr treatment
Text: as §4, §5

NCI-H1703 = experiment: Lung cancer cell line panel screened for sensitivity to BPTES, 72 hr proliferation assay

O=C(Cc1ccccc1)Nc1nnc(CCSCCc2nnc(NC(=O)Cc3ccccc3)s2)s1 [BPTES]
13C label accumulation in glutamate and aspartate (A427 cells): decreased label accumulation
Max Inh @ 10 uM (%) (LXF-289; LXF-289, 10 uM): 91%
Mu/max @10 uM (LXF-289; LXF-289, 10 uM): −0.25
μ/μmax @10 uM (LXF-289; LXF-289, 10 uM): −0.25
μ/μmax (LXF-289; LXF-289 cell line): −0.25
sensitivity to BPTES (MDA-MB-231 cells [1]; MDA-MB-231 cells expressing empty vector or GAC-WT): retained significant sensitivity
sensitivity to BPTES (MDA-MB-231 cells [1]; MDA-MB-231 cells with stable overexpression of the GAC-BR mutant): rendered resistant
13C label accumulation in glutamate and aspartate (MDA-MB-231 cells [2]): decreased label accumulation
share of the 62 lines with significant sensitivity to BPTES (μ/μmax<0.6) [3]: Approximately 30%
μ/μmax (DMS-53): 0.93
μ/μmax (NCI-H1650): 0.26
μ/μmax (NCI-H1694): 1.00
μ/μmax (NCI-H2126): 1.00
Max Inh @ 10 uM (%) (HCC15; HCC15, 10 uM): 40%
Mu/max @10 uM (HCC15; HCC15, 10 uM): 0.64
μ/μmax @10 uM (HCC15; HCC15, 10 uM): 0.64
μ/μmax (HCC15; HCC15 cell line): 0.64
μ/μmax (NCI-H1838): 0.63
μ/μmax (NCI-H1581): 0.51
μ/μmax (DMS-153): 0.58
μ/μmax (NCI-H1573): 0.92
μ/μmax (NCI-H2347): 0.90
μ/μmax (NCI-H748): 0.76
μ/μmax (NCI-H2009): 0.96
μ/μmax (NCI-H774): 0.54
μ/μmax (NCI-H1436): 0.68
Max Inh @ 10 uM (%) (NCI-H1437; NCI-H1437, 10 uM): 27%
Mu/max @10 uM (NCI-H1437; NCI-H1437, 10 uM): 0.81
μ/μmax @10 uM (NCI-H1437; NCI-H1437, 10 uM): 0.81
μ/μmax (NCI-H1437; NCI-H1437 cell line): 0.81
response to the compound (PC3): minimal response
response to the compound (HCT116): minimal response
sensitivity to BPTES treatment (CAKI-1): modest sensitivity
response to the compound (HUH7): minimal response
sensitivity to BPTES treatment (MDA-MB-231): modest sensitivity
response to BPTES treatment (A427): Maximum response
sensitivity to BPTES treatment (HepG2): modest sensitivity
response to BPTES treatment (SKBR3): minimum effect; also recorded: minimal response
Max Inh @ 10 uM (%) (NCI-H1703; NCI-H1703, 10 uM): 87%
Mu/max @10 uM (NCI-H1703; NCI-H1703, 10 uM): 0.30
μ/μmax @10 uM (NCI-H1703; NCI-H1703, 10 uM): 0.30
μ/μmax (NCI-H1703; NCI-H1703 cell line): 0.30

— patent US10101331B2, “Methods of evaluating patients using E-cadherin or vimentin” (AGIOS PHARMACEUTICALS, INC, priority 2012, dated 2018)
